Test results: the Deep4Chem optical property database

Assay: photoluminescence quantum yield (fraction); solvent given as SMILES

With `CCC1=C(C)C(=O)n2c1cc1c(c(C)c(C(=O)OC)n1C)c2=O` as the compound, how does the photoluminescence quantum yield (in C1CCCCC1) read?
The photoluminescence quantum yield was 0.03.

What about the photoluminescence quantum yield (in CO) of the same compound?
Its photoluminescence quantum yield is 0.66.

What about the photoluminescence quantum yield (in CS(C)=O) of the same compound?
The photoluminescence quantum yield was 0.8.

What about the photoluminescence quantum yield (in ClC(Cl)Cl) of the same compound?
Its photoluminescence quantum yield is 0.71.

And the photoluminescence quantum yield (in c1ccccc1)?
Its photoluminescence quantum yield is 0.18.

Which results are given for `CCCCCCC(CCCCCC)N1C(=O)c2cccc3c(-c4ccc(-c5ccc(OC)cc5)cc4)ccc(c23)C1=O`?
photoluminescence quantum yield (in CCCCCC): 0.5; photoluminescence quantum yield (in CCCCCCCCCCCCCC): 0.5; photoluminescence quantum yield (in CCCCCCCCCCCO): 0.56; photoluminescence quantum yield (in CCCCO): 0.16; photoluminescence quantum yield (in CN(C)C=O): 0.15; photoluminescence quantum yield (in Cc1ccccc1): 0.4; photoluminescence quantum yield (in ClC(Cl)Cl): 0.67

Which photoluminescence quantum yield (in O) does the source give for `CCN(CC)c1ccc2c(c1)C(C)(C)C(=O)C=C2` here?
The photoluminescence quantum yield was 0.09.

With `CC/[NH+]=c1\cc2oc3cc(NCCC(=O)NC(CCC(=O)OC)C(=O)OC)c4ccccc4c3nc-2cc1C` (stereo unspecified) as the compound, how does the photoluminescence quantum yield (in CCO) read?
Its photoluminescence quantum yield is 0.48.

What about the photoluminescence quantum yield (in O) of the same compound?
Its photoluminescence quantum yield is 0.16.

Which photoluminescence quantum yield (in ClC(Cl)Cl) does the source give for `F[B-]1(F)OC(c2ccc(C(F)(F)F)cc2)=Cc2ccc3ccccc3[n+]21` here?
Its photoluminescence quantum yield is 0.37.

Which photoluminescence quantum yield (in CCO) does the source give for `Cc1c(C)n2c(COC(=O)c3ccccc3O)c(C)c(=O)n2c1=O` here?
Its photoluminescence quantum yield is 0.641.

With `c1ccc(Nc2nc(Nc3ccccc3)nc(Nc3ccc4cc5ccccc5cc4c3)n2)cc1` as the compound, how does the photoluminescence quantum yield (in C1COCCO1) read?
Its photoluminescence quantum yield is 0.62.

And the photoluminescence quantum yield (in CC#N)?
The photoluminescence quantum yield was 0.43.

And the photoluminescence quantum yield (in CCCCOCCCC)?
The photoluminescence quantum yield was 0.41.

What about the photoluminescence quantum yield (in CCOC(C)=O) of the same compound?
The photoluminescence quantum yield was 0.3.

Which photoluminescence quantum yield (in CS(C)=O) does the source give for `Cc1ccc(-c2nc3sc4ccccc4c3s2)cc1` here?
Its photoluminescence quantum yield is 0.89.

With `F[B-]1(F)n2c(c3cccc4cccc2c43)=Nc2cccc(Cl)[n+]21` as the compound, how does the photoluminescence quantum yield (in C1CCOC1) read?
The photoluminescence quantum yield was 0.99.

And the photoluminescence quantum yield (in CC#N)?
The photoluminescence quantum yield was 0.99.

What about the photoluminescence quantum yield (in CCCCCC) of the same compound?
Its photoluminescence quantum yield is 0.99.

And the photoluminescence quantum yield (in Cc1ccccc1)?
Its photoluminescence quantum yield is 0.99.

And the photoluminescence quantum yield (in ClCCl)?
The photoluminescence quantum yield was 0.99.

Which photoluminescence quantum yield (in C1CCOC1) does the source give for `CCN1c2ccc(/C=N/Nc3ccccn3)cc2Sc2cc(-c3ccc(C#N)cc3)ccc21` here?
The photoluminescence quantum yield was 0.23.

What about the photoluminescence quantum yield (in CS(C)=O) of the same compound?
Its photoluminescence quantum yield is 0.23.

What about the photoluminescence quantum yield (in Cc1ccccc1) of the same compound?
Its photoluminescence quantum yield is 0.33.

And the photoluminescence quantum yield (in ClCCl)?
The photoluminescence quantum yield was 0.36.

Which photoluminescence quantum yield (in C1CCOC1) does the source give for `N#Cc1ccc(C2=CC3=c4cc(-c5ccc(C#N)cc5)c5nc(C(F)(F)C(F)(F)C(F)(F)F)nc6c(-c7ccc(C#N)cc7)cc(c4c65)C4=CC(c5ccc(C#N)cc5)=C5N=C(C(F)(F)C(F)(F)C(F)(F)F)N=C2C5C43)cc1` (stereo unspecified) here?
Its photoluminescence quantum yield is 1.

With `Cc1cc2ccccc2c2c1c1ccccc1n2C(=O)OC(C)(C)C` as the compound, how does the photoluminescence quantum yield (in ClCCl) read?
Its photoluminescence quantum yield is 0.185.

For `CCCCCCN(CCCCCC)c1ccc(C#Cc2ccc(N(CCCCCC)CCCCCC)cc2)cc1`, which photoluminescence quantum yield (in CO) is on record?
The photoluminescence quantum yield was 0.0001.

With `CC1=N/C(=C\c2ccccc2N)C(=O)N1C` as the compound, how does the photoluminescence quantum yield (in C1CCCCC1) read?
The photoluminescence quantum yield was 0.002.

And the photoluminescence quantum yield (in C1CCOC1)?
The photoluminescence quantum yield was 0.009.

And the photoluminescence quantum yield (in CC#N)?
The photoluminescence quantum yield was 0.004.

And the photoluminescence quantum yield (in CO)?
The photoluminescence quantum yield was 0.002.

What about the photoluminescence quantum yield (in CS(C)=O) of the same compound?
The photoluminescence quantum yield was 0.007.

And the photoluminescence quantum yield (in ClCCl)?
Its photoluminescence quantum yield is 0.004.

What about the photoluminescence quantum yield (in O) of the same compound?
The photoluminescence quantum yield was 0.001.

For `CC(C)(C)c1ccc(C2=C(c3ccc(N(c4ccccc4)c4ccccc4)cc3)S(=O)(=O)c3c2sc(-c2ccc(N(c4ccccc4)c4ccccc4)cc2)c3-c2ccc(C(C)(C)C)cc2)cc1`, which photoluminescence quantum yield (in C1CCOC1) is on record?
Its photoluminescence quantum yield is 0.442.

For `CCCCN(CCCC)c1ccc(C#Cc2cc(C#Cc3ccc(C(F)(F)F)cc3)c(C#Cc3ccc(C(F)(F)F)cc3)cc2C#Cc2ccc(N(CCCC)CCCC)cc2)cc1`, which photoluminescence quantum yield (in ClCCl) is on record?
The photoluminescence quantum yield was 0.44.

With `c1ccc2c(c1)c1ccccc1c1ccccc21` as the compound, how does the photoluminescence quantum yield (in ClCCl) read?
Its photoluminescence quantum yield is 0.02.

What does the source list for `CCn1c2ccsc2c2c3nsnc3c3c4sccc4n(CC)c3c21`?
photoluminescence quantum yield (in C1CCOC1): 0.68; photoluminescence quantum yield (in CCOC(C)=O): 0.63; photoluminescence quantum yield (in CN(C)C=O): 0.42; photoluminescence quantum yield (in Cc1ccccc1): 0.73; photoluminescence quantum yield (in ClCCl): 0.33

Which photoluminescence quantum yield (in Cc1ccccc1) does the source give for `c1cc2c3c(c1)-c1cccc4cccc(c14)B3c1cccc3cccc-2c13` here?
Its photoluminescence quantum yield is 0.9.

With `CCCCn1c2ccc(C#Cc3cccs3)cc2c2c1c1c3ccc(C#Cc4cccs4)cc3n(CCCC)c1c1c3ccc(C#Cc4cccs4)cc3n(CCCC)c21` as the compound, how does the photoluminescence quantum yield (in C1CCOC1) read?
Its photoluminescence quantum yield is 0.39.

For `Cc1cccc(C)c1/C=C/c1nc(N2CCOCC2)c2c([n+]1[O-])CCCC2`, which photoluminescence quantum yield (in ClCCl) is on record?
The photoluminescence quantum yield was 0.29.

Which photoluminescence quantum yield (in C1CCOC1) does the source give for `CCCCCCCCN1c2ccccc2Sc2cc(/C=C/c3ccc(N(c4ccc(/C=C/c5ccc6c(c5)Sc5ccccc5N6CCCCCCCC)cc4)c4ccc(/C=C/c5ccc(/C=C/c6ccc(N(c7ccc(/C=C/c8ccc(N(c9ccccc9)c9ccccc9)cc8)cc7)c7ccc(/C=C/c8ccc(N(c9ccccc9)c9ccccc9)cc8)cc7)cc6)c6nsnc56)cc4)cc3)ccc21` here?
The photoluminescence quantum yield was 0.031.

And the photoluminescence quantum yield (in CCOC(C)=O)?
The photoluminescence quantum yield was 0.062.

What about the photoluminescence quantum yield (in CN(C)C=O) of the same compound?
The photoluminescence quantum yield was 0.001.

And the photoluminescence quantum yield (in Cc1ccccc1)?
Its photoluminescence quantum yield is 0.349.

What about the photoluminescence quantum yield (in ClC(Cl)Cl) of the same compound?
The photoluminescence quantum yield was 0.06.

What about the photoluminescence quantum yield (in ClCCl) of the same compound?
Its photoluminescence quantum yield is 0.003.

With `Cc1ccc2nc3cc4c5c(cccc5c3nc2c1)C(c1ccccc1)=C(c1ccccc1)O4` as the compound, how does the photoluminescence quantum yield (in ClCCl) read?
Its photoluminescence quantum yield is 0.37.

Which photoluminescence quantum yield (in CC(C)=O) does the source give for `CCN(CC)c1ccc2cc(/C(Cl)=C/C=C/C(=C(C#N)C#N)c3ccc4c(c3)c3ccccc3n4CC)c(=O)oc2c1` here?
The photoluminescence quantum yield was 0.019.

And the photoluminescence quantum yield (in CCOC(C)=O)?
Its photoluminescence quantum yield is 0.052.

And the photoluminescence quantum yield (in CN(C)C=O)?
Its photoluminescence quantum yield is 0.042.

And the photoluminescence quantum yield (in CS(C)=O)?
The photoluminescence quantum yield was 0.018.

What about the photoluminescence quantum yield (in Cc1ccccc1) of the same compound?
Its photoluminescence quantum yield is 0.091.

And the photoluminescence quantum yield (in ClCCl)?
The photoluminescence quantum yield was 0.096.

Which photoluminescence quantum yield (in C1CCOC1) does the source give for `CCN(CC)c1ccc(-c2nc3c4ccccc4n(C)c3nc2-c2ccc(B(c3c(C)cc(C)cc3C)c3c(C)cc(C)cc3C)cc2)cc1` here?
The photoluminescence quantum yield was 0.27.
